Source: PubChem BioAssay AID248 (DTP/NCI, 2004)
Values joined by “and” are separate entries in the source; they are usually repeats but may differ in a detail not shown here. Equal entries are not always repeated. Inconclusive results and toxic doses are left out.

System: L1210 leukemia ip in BDF1 mice, survival T/C
Assay: NCI In Vivo Anticancer Drug Screen. Data for tumor model L1210 Leukemia (intraperitoneal) in B6D2F1 (BDF1) mice
Conditions: endpoint: mean survival time, higher = longer survival
In short: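 Ratio derived from survival: compound-dosed mice over vehicle-dosed mice, all bearing a transplantable tumor.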

[1] = dose: 100.0 mg/kg/injection, schedule: Q01DX009 (ip), vehicle: Klucel (hydroxypropylcellulose) (HPC)
[2] = dose: 200.0 mg/kg/injection, schedule: Q01DX009 (ip), vehicle: Klucel (hydroxypropylcellulose) (HPC)
[3] = dose: 400.0 mg/kg/injection, schedule: Q01DX009 (ip), vehicle: Klucel (hydroxypropylcellulose) (HPC)
[4] = dose: 25.0 mg/kg/injection, schedule: Q01DX009 (ip), vehicle: Klucel (hydroxypropylcellulose) (HPC)
[5] = dose: 100.0 mg/kg/injection, schedule: Q01DX001 (ip), vehicle: carboxymethylcellulose (CMC)
[6] = dose: 100.0 mg/kg/injection, schedule: Q01DX001 (ip), vehicle: saline
[7] = dose: 200.0 mg/kg/injection, schedule: Q01DX001 (ip), vehicle: saline
[8] = dose: 400.0 mg/kg/injection, schedule: Q01DX001 (ip), vehicle: saline
[9] = dose: 12.5 mg/kg/injection, schedule: Q04DX003 (ip), vehicle: saline
[10] = dose: 75.0 mg/kg/injection, schedule: Q01DX001 (ip), vehicle: other
[11] = dose: 150.0 mg/kg/injection, schedule: Q01DX001 (ip), vehicle: other
[12] = dose: 300.0 mg/kg/injection, schedule: Q01DX001 (ip), vehicle: other

How did the T/C (dose: 25.0 mg/kg/injection, schedule: Q01DX001 (ip), vehicle: Klucel (hydroxypropylcellulose) (HPC)) turn out when `CCOC(=O)c1cnc(SC)nc1Nc1ccccc1[N+](=O)[O-]` was run?
The T/C was 96 % of control.

What about the T/C (dose: 50.0 mg/kg/injection, schedule: Q01DX001 (ip), vehicle: Klucel (hydroxypropylcellulose) (HPC)) of the same compound?
Its T/C is 96 % of control.

What about the T/C (dose: 100.0 mg/kg/injection, schedule: Q01DX001 (ip), vehicle: Klucel (hydroxypropylcellulose) (HPC)) of the same compound?
Its T/C is 100 % of control.

And the T/C [1]?
Its T/C is 94 % of control.

What about the T/C (dose: 200.0 mg/kg/injection, schedule: Q01DX001 (ip), vehicle: Klucel (hydroxypropylcellulose) (HPC)) of the same compound?
The T/C was 88 % of control.

And the T/C [2]?
The T/C was 94 % of control.

What about the T/C (dose: 400.0 mg/kg/injection, schedule: Q01DX001 (ip), vehicle: Klucel (hydroxypropylcellulose) (HPC)) of the same compound?
Its T/C is 88 % of control.

What about the T/C [3] of the same compound?
The T/C was 89 % of control.

How did the T/C (dose: 100.0 mg/kg/injection, schedule: Q01DX009 (ip), vehicle: saline with Tween-80) turn out when `NC(=O)c1ccccc1OC(=O)Nc1ccccc1F` was run?
The T/C was 106 % of control.

And the T/C (dose: 200.0 mg/kg/injection, schedule: Q01DX009 (ip), vehicle: saline with Tween-80)?
Its T/C is 107 % of control.

And the T/C (dose: 400.0 mg/kg/injection, schedule: Q01DX009 (ip), vehicle: saline with Tween-80)?
The T/C was 107 % of control.

What does the source list for `NC1(C(=O)NCC(=O)O)C2CC3CC(C2)CC1C3` (centres undefined)?
T/C [4]: 94 % of control; T/C (dose: 50.0 mg/kg/injection, schedule: Q01DX009 (ip), vehicle: Klucel (hydroxypropylcellulose) (HPC)): 100 % of control; T/C [1]: 97 % of control and 99 % of control; T/C [2]: 103 % of control; T/C [3]: 102 % of control

Which results are given for `Cc1ccc(S(=O)(=O)S/C(=N\c2ccccn2)Nc2ccccn2)cc1`?
T/C [5]: 98 % of control; T/C (dose: 200.0 mg/kg/injection, schedule: Q01DX001 (ip), vehicle: carboxymethylcellulose (CMC)): 93 % of control; T/C (dose: 400.0 mg/kg/injection, schedule: Q01DX001 (ip), vehicle: carboxymethylcellulose (CMC)): 91 % of control

For `Nc1nc(N)c2nc(NCc3ccc(C(=O)NC(CCC(=O)O)C(=O)O)cc3)cnc2n1` (centres undefined), which T/C [6] is on record?
Its T/C is 100 % of control.

What about the T/C (dose: 100.0 mg/kg/injection, schedule: Q01DX009 (ip), vehicle: saline) of the same compound?
The T/C was 117 % of control.

And the T/C (dose: 100.0 mg/kg/injection, schedule: Q04DX002 (ip), vehicle: saline)?
The T/C was 103 % of control and 105 % of control.

And the T/C [7]?
Its T/C is 105 % of control.

And the T/C (dose: 200.0 mg/kg/injection, schedule: Q01DX009 (ip), vehicle: saline)?
Its T/C is 117 % of control.

And the T/C (dose: 200.0 mg/kg/injection, schedule: Q04DX002 (ip), vehicle: saline)?
The T/C was 103 % of control and 107 % of control.

And the T/C [8]?
Its T/C is 96 % of control.

And the T/C (dose: 400.0 mg/kg/injection, schedule: Q04DX002 (ip), vehicle: saline)?
Its T/C is 107 % of control and 113 % of control.

What does the source list for `CCCCCc1c(C)nc([N+](=O)[O-])nc1N`?
T/C (dose: 3.13 mg/kg/injection, schedule: Q01DX001 (ip), vehicle: saline with Tween-80): 97 % of control; T/C (dose: 6.25 mg/kg/injection, schedule: Q01DX001 (ip), vehicle: saline with Tween-80): 101 % of control; T/C (dose: 12.5 mg/kg/injection, schedule: Q01DX001 (ip), vehicle: saline with Tween-80): 96 % of control

Which results are given for `CC(=O)NNC(=O)c1cnccn1`?
T/C (dose: 6.25 mg/kg/injection, schedule: Q04DX003 (ip), vehicle: saline): 100 % of control; T/C [9]: 97 % of control; T/C (dose: 24.0 mg/kg/injection, schedule: Q04DX003 (ip), vehicle: saline): 97 % of control; T/C (dose: 25.0 mg/kg/injection, schedule: Q01DX009 (ip), vehicle: water): 95 % of control and 98 % of control; T/C (dose: 48.0 mg/kg/injection, schedule: Q04DX003 (ip), vehicle: saline): 102 % of control; T/C (dose: 50.0 mg/kg/injection, schedule: Q01DX009 (ip), vehicle: water): 97 % of control and 102 % of control; T/C (dose: 100.0 mg/kg/injection, schedule: Q01DX009 (ip), vehicle: water): 112 % of control and 123 % of control; T/C (dose: 200.0 mg/kg/injection, schedule: Q01DX001 (ip), vehicle: water): 103 % of control; T/C (dose: 200.0 mg/kg/injection, schedule: Q01DX009 (ip), vehicle: water): 116 % of control and 118 % of control

Which results are given for `O=C(O)C12CCC(CCC1O)C2` (centres undefined)?
T/C [10]: 102 % of control; T/C [11]: 100 % of control; T/C [12]: 100 % of control

Which results are given for `S=C(Nc1ccc(Br)cc1)NC1CCCCC1`?
T/C [10]: 88 % of control; T/C [11]: 93 % of control; T/C [12]: 95 % of control

What does the source list for `O/N=C\c1cc2c3c(c1)CCCN3CCC2`?
T/C [1]: 95 % of control; T/C [2]: 91 % of control; T/C [3]: 86 % of control

For `O=C(Nc1cccc(C2=NCCN2)c1)c1ccc(OCCCOc2ccc(C(=O)Nc3cccc(C4=NCCN4)c3)cc2)cc1`, which T/C (dose: 9.0 mg/kg/injection, schedule: Q01DX Z (ip), vehicle: saline) is on record?
Its T/C is 113 % of control.

What about the T/C (dose: 12.0 mg/kg/injection, schedule: Q01DX Z (ip), vehicle: water) of the same compound?
The T/C was 107 % of control.

And the T/C (dose: 13.0 mg/kg/injection, schedule: Q01DX Z (ip), vehicle: saline)?
The T/C was 107 % of control.

What about the T/C (dose: 20.0 mg/kg/injection, schedule: Q01DX Z (ip), vehicle: saline) of the same compound?
The T/C was 112 % of control.

What about the T/C (dose: 25.0 mg/kg/injection, schedule: Q01DX Z (ip), vehicle: water) of the same compound?
Its T/C is 111 % of control.

With `CCCCCCCCCCCCCCCCCC[N+]1(C)CCOCC1` as the compound, how does the T/C (dose: 6.25 mg/kg/injection, schedule: Q01DX009 (ip), vehicle: Klucel (hydroxypropylcellulose) (HPC)) read?
The T/C was 94 % of control.

What about the T/C (dose: 12.5 mg/kg/injection, schedule: Q01DX009 (ip), vehicle: Klucel (hydroxypropylcellulose) (HPC)) of the same compound?
Its T/C is 100 % of control.

And the T/C [4]?
The T/C was 97 % of control.

What does the source list for `COc1cc2c(c(OC)c1OC)-c1cc(I)c(O)cc1[C@@H](NC(C)=O)CC2`?
T/C (dose: 8.0 mg/kg/injection, schedule: Q01DX Z (ip), vehicle: carboxymethylcellulose (CMC)): 104 % of control; T/C (dose: 11.0 mg/kg/injection, schedule: Q01DX009 (ip), vehicle: saline with Tween-80): 114 % of control; T/C (dose: 12.0 mg/kg/injection, schedule: Q01DX Z (ip), vehicle: carboxymethylcellulose (CMC)): 109 % of control; T/C (dose: 16.5 mg/kg/injection, schedule: Q01DX009 (ip), vehicle: saline with Tween-80): 115 % of control; T/C (dose: 18.0 mg/kg/injection, schedule: Q01DX Z (ip), vehicle: carboxymethylcellulose (CMC)): 119 % of control; T/C (dose: 25.0 mg/kg/injection, schedule: Q01DX009 (ip), vehicle: saline with Tween-80): 110 % of control; T/C (dose: 28.0 mg/kg/injection, schedule: Q01DX Z (ip), vehicle: carboxymethylcellulose (CMC)): 118 % of control; T/C (dose: 28.0 mg/kg/injection, schedule: Q01DX Z (ip), vehicle: saline): 123 % of control; T/C (dose: 40.0 mg/kg/injection, schedule: Q01DX015 (ip), vehicle: carboxymethylcellulose (CMC)): 104 % of control; T/C (dose: 44.0 mg/kg/injection, schedule: Q04DX003 (ip), vehicle: saline sonified): 100 % of control; T/C (dose: 45.0 mg/kg/injection, schedule: Q01DX Z (ip), vehicle: saline): 122 % of control; T/C (dose: 50.0 mg/kg/injection, schedule: Q01DX001 (ip), vehicle: carboxymethylcellulose (CMC)): 124 % of control; T/C (dose: 65.0 mg/kg/injection, schedule: Q01DX Z (ip), vehicle: saline): 105 % of control; T/C (dose: 66.0 mg/kg/injection, schedule: Q04DX003 (ip), vehicle: saline sonified): 107 % of control; T/C [5]: 120 % of control; T/C (dose: 100.0 mg/kg/injection, schedule: Q01DX009 (ip), vehicle: saline sonified): 124 % of control; T/C (dose: 100.0 mg/kg/injection, schedule: Q01DX Z (ip), vehicle: carboxymethylcellulose (CMC)): 122 % of control; T/C (dose: 100.0 mg/kg/injection, schedule: Q04DX003 (ip), vehicle: saline sonified): 108 % of control; T/C (dose: 150.0 mg/kg/injection, schedule: Q04DX003 (ip), vehicle: saline sonified): 124 % of control; T/C (dose: 200.0 mg/kg/injection, schedule: Q04DX003 (ip), vehicle: Klucel (hydroxypropylcellulose) (HPC)): 111 % of control; T/C (dose: 400.0 mg/kg/injection, schedule: Q01DX009 (ip), vehicle: saline sonified): 165 % of control; T/C (dose: 400.0 mg/kg/injection, schedule: Q04DX003 (ip), vehicle: Klucel (hydroxypropylcellulose) (HPC)): 96 % of control

Which results are given for `c1ccc(Cc2cccc[n+]2Cc2ccccc2)cc1`?
T/C [9]: 102 % of control; T/C (dose: 25.0 mg/kg/injection, schedule: Q04DX003 (ip), vehicle: saline): 105 % of control

How did the T/C [6] turn out when `O=C1OCC(O)=C1Cc1ccccc1` was run?
Its T/C is 101 % of control.

What about the T/C [7] of the same compound?
Its T/C is 89 % of control.

What about the T/C [8] of the same compound?
The T/C was 94 % of control.

`CC(C)Nc1nc(N)nc2nc(-c3ccc(Cl)cc3)c(-c3ccc(Cl)cc3)nc12` was tested. Which T/C [6] did it give?
Its T/C is 100 % of control.

And the T/C [7]?
Its T/C is 113 % of control.

What about the T/C [8] of the same compound?
The T/C was 107 % of control.

Which results are given for `CCCCN(CCCC)C(=N)OC1CCCCC1`?
T/C (dose: 8.8 mg/kg/injection, schedule: Q01DX Z (ip), vehicle: methylcellulose (MC)): 93 % of control; T/C (dose: 13.3 mg/kg/injection, schedule: Q01DX Z (ip), vehicle: methylcellulose (MC)): 91 % of control; T/C (dose: 20.0 mg/kg/injection, schedule: Q01DX Z (ip), vehicle: methylcellulose (MC)): 97 % of control
